The values below come from ChEMBL document CHEMBL3832050, “DailyMed|setid=da574350-be6b-49f3-b2ef-64da06af9b9d | PAMDRONATE DISODIUM - pamodronate disodium injection, solution|GENERAMEDIX, INC”.

Structures are written as SMILES.

The nature of data set [1]: (§1) Mean pharmacokinetic parameters for Pamidronate after intravenous infusion of 30, 60 and 90 mg of Pamidronate disodium for 4 hours and 90 mg for 24 hours in cancer patients, 6 in each group. On the set-up: dose 90 mg, dose 30 mg, dose 60 mg, route iv. To be noted: human, in vivo, dosed compound id 8, dosed compound name PAMIDRONATE DISODIUM, gender male and female, regimen Single dose, route iv, study dosing duration 4 hours. In kind it is ADME, organism-based.

A further data set relates to Homo sapiens. The data set is described as §1. In kind it is ADME, organism-based. Set-up: dose 90 mg, dose 30 mg, dose 60 mg, route iv. To be noted: in vivo, iv, dosed compound id 8, dosed compound name PAMIDRONATE DISODIUM, gender male and female, regimen Single dose; for Excretion: tissue Urine.
Setting [2] is: dose 60 mg, study dosing duration 4 hours, tissue Plasma.
Setting [3] is: dose 90 mg, study dosing duration 4 hours, tissue Plasma.
Where [4] appears, read: dose 90 mg, study dosing duration 24 hours, tissue Plasma.

In the case of `NCCC(O)(P(=O)([O-])O)P(=O)([O-])O.[Na+].[Na+]`, the dose excreted in data set [1] (iv, at 30 mg, tissue Urine, read-out: Excretion) came to 43.9%. For the same compound, in data set [1] (dose 30 mg, tissue Plasma), the clearance (in general, the rate of elimination divided by the concentration) amounted to 136 mL/min. Also, the CL renal in data set [1] (dose 30 mg, tissue Plasma, read-out: CL_renal) was found to be 58 mL/min. For the same compound, the Excretion with Homo sapiens (at 60 mg, study dosing duration 4 hours) amounted to 47.4%; with Homo sapiens (at 90 mg, study dosing duration 4 hours), 45.3%; in the data set with Homo sapiens (at 90 mg, study dosing duration 24 hours) it was 47.5%. Moreover, the CL turned out to be 88 mL/min with Homo sapiens (setting [2]), 103 mL/min in the data set on Homo sapiens (setting [3]) and 101 mL/min with Homo sapiens (setting [4]). Besides, the results for the CL_renal in the data set with Homo sapiens (setting [2]), in the data set on Homo sapiens (setting [3]) and in the data set with Homo sapiens (setting [4]) were 42 mL/min, 44 mL/min and 52 mL/min, respectively. Besides, in the data set on Homo sapiens (study dosing duration 24 hours, tissue Plasma), the Cmax (as a rule, the maximum level reached in the sampled fluid or tissue) is 1380 ng/mL.
